The subject of the assay is NCI-H1876 complex spheroid growth, % test/control. The experiment in a line: Anticancer human tumor NCI-H1876 cell line growth inhibition [Asc].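 As to all read-outs here: compound exposure lasted 7 days starting three days after seeding.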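 As to viability, T/C: 100% = DMSO vehicle control wells.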 Particulars: for viability, T/C: stronger effect = lower value. The gist of the method:
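Concentration series start at each agent's clinical Cmax, or at 10 microM when none is established, and drop in half-log steps; agents are applied alone or together to complex spheroids built with HUVEC and hMSC.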

Molecules are shown by their SMILES. Several values for one entry are separate records, joined by “and”; a condition that tells them apart may be missing. Equal entries are not always repeated.

In general, IC50 refers to the midpoint of a concentration-inhibition curve. As usually defined, the viability, T/C is the result in the treated group divided by that in the control group, in per cent.

With `O=C(c1cc(Cc2n[nH]c(=O)c3ccccc23)ccc1F)N1CCN(C(=O)C2CC2)CC1` + CNC(C)C(=O)NC1CN(S(=O)(=O)c2cccc(S(=O)(=O)N3CCC4CCC(C(=O)NC(c5ccccc5)c5ccccc5)N4C(=O)C(NC(=O)C(C)NC)C3)c2)CCC2CCC(C(=O)NC(c3ccccc3)c3ccccc3)N2C1=O, the IC50 reads like this: (curve of first compound, second compound 0.00316 µM) 4.73 µM; (curve of first compound, second compound 0.01 µM) over 10 µM; (curve of first compound, second compound 0.0316 µM) over 10 µM; (curve of first compound, second compound 0.1 µM) over 10 µM; (curve of first compound, second compound 0.316 µM) over 10 µM; (curve of first compound, second compound 1 µM) over 10 µM. Further, the viability, T/C runs as follows: (second compound 0.00316 µM, first compound 0.0316 µM) 67%; (second compound 0.00316 µM, first compound 0.1 µM) 61.7%; (second compound 0.00316 µM, first compound 0.316 µM) 65.1%; (second compound 0.00316 µM, first compound 1 µM) 66.5%; (second compound 0.00316 µM, first compound 3.16 µM) 60.6%; (second compound 0.00316 µM, first compound 10 µM) 29.6%. The viability, T/C is 96% (second compound 0.01 µM, first compound 0.0316 µM); 93% (second compound 0.01 µM, first compound 0.1 µM); 105% (second compound 0.01 µM, first compound 0.316 µM); 101% (second compound 0.01 µM, first compound 1 µM); 96.5% (second compound 0.01 µM, first compound 3.16 µM); 66.3% (second compound 0.01 µM, first compound 10 µM). Further, the viability, T/C runs as follows: (second compound 0.0316 µM, first compound 0.0316 µM) 98.5%; (second compound 0.0316 µM, first compound 0.1 µM) 93.7%; (second compound 0.0316 µM, first compound 0.316 µM) 92%; (second compound 0.0316 µM, first compound 1 µM) 99.9%; (second compound 0.0316 µM, first compound 3.16 µM) 97.8%; (second compound 0.0316 µM, first compound 10 µM) 69.8%. Moreover, the viability, T/C (second compound 0.1 µM, first compound 0.0316 µM) was 89.5%; the viability, T/C (second compound 0.1 µM, first compound 0.1 µM) is 97.6%; the viability, T/C (second compound 0.1 µM, first compound 0.316 µM) was 103%; the viability, T/C (second compound 0.1 µM, first compound 1 µM) was 105%; the viability, T/C (second compound 0.1 µM, first compound 3.16 µM) is 95.6%; the viability, T/C (second compound 0.1 µM, first compound 10 µM) is 62.4%. The viability, T/C (second compound 0.316 µM, first compound 0.0316 µM) was 94.2%; the viability, T/C (second compound 0.316 µM, first compound 0.1 µM) was 99.9%; the viability, T/C (second compound 0.316 µM, first compound 0.316 µM) was 116%; the viability, T/C (second compound 0.316 µM, first compound 1 µM) was 111%; the viability, T/C (second compound 0.316 µM, first compound 3.16 µM) was 104%; the viability, T/C (second compound 0.316 µM, first compound 10 µM) was 66.7%. Also, the viability, T/C is 101% (second compound 1 µM, first compound 0.0316 µM); 91.2% (second compound 1 µM, first compound 0.1 µM); 97% (second compound 1 µM, first compound 0.316 µM); 104% (second compound 1 µM, first compound 1 µM); 101% (second compound 1 µM, first compound 3.16 µM); 56.6% (second compound 1 µM, first compound 10 µM).

As for `Cc1nc(N2CCC3(CC2)COC(C)C3N)c(CO)nc1Sc1ccnc(N)c1Cl` (stereo unspecified), the viability, T/C is, setting by setting: (compound 0.00949 µM) 102% and 105% and 103%; (compound 0.03 µM) 92.8% and 87.9% and 89.1%; (compound 0.0949 µM) 103% and 84.3% and 92.5%; (compound 0.3 µM) 79.5% and 84.7% and 86%; (compound 0.949 µM) 78.4% and 84% and 94.5%; (compound 3 µM) 75.5% and 87.1% and 88.2%. Besides, under “curve of compound”, the IC50 was over 3 µM.

With `NC1CCC(NC2CC2c2ccccc2)CC1` (stereo unspecified), the viability, T/C was 121% and 119% (2×) (compound 0.000316 µM); 108% and 95.7% and 118% (compound 0.001 µM); 118% and 112% and 134% (compound 0.00316 µM); 116% and 106% and 120% (compound 0.01 µM); 116% and 112% and 131% (compound 0.0316 µM); 107% and 112% and 136% (compound 0.1 µM). The IC50 (curve of compound) was over 0.1 µM.

For the origin of these results see PubChem BioAssay AID1963441 (Molecular Pharmacology Branch, DTP, NCI, 2024).
